According to patent US7842695B2, “Substituted pyrazole compounds” (Merck Patent GmbH, priority 2003, dated 2010):
pIC50: −log10 of the molar value.

Columns and labels:
5-HT2A receptors = 5-HT2A receptors (UniProt P14842); test: in-vitro affinity to 5-HT2A receptors, [3H]ketanserine displacement (Example A1); format: binding
Text: The 5-HT2A receptors are exposed both to [^3H]ketanserine (a substance known for its affinity to the receptor) and also to the test compound. The decrease in the affinity of [^3H]ketanserine to the receptor is an indication of the affinity of the test substance to the 5-HT2A receptor.

5 HT2C receptor = biological target: T1, 5 HT2C receptor (Homo sapiens, UniProt P28335); test: affinity to the 5 HT2C receptor; format: binding
T1 sequence (P28335 33-458): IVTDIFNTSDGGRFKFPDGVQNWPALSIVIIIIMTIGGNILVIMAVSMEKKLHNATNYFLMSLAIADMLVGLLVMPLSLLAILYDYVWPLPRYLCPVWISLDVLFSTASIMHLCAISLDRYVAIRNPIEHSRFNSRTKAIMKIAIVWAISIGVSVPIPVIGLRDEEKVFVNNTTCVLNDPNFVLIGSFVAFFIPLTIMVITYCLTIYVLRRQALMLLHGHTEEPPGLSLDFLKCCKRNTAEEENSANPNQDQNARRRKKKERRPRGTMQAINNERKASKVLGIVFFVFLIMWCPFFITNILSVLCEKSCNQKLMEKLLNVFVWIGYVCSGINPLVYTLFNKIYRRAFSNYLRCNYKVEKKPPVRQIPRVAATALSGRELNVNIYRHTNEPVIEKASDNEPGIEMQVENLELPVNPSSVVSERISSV

Row | SMILES | pIC50 (5-HT2A receptors) | pIC50 (5 HT2C receptor)
1 | Cc1ccoc1-c1c(CN(C)C)cnn1-c1ccc(-c2ccc(F)cc2)cc1 [Example 553, [1-(4′-Fluorobiphenyl-4-yl)-5-(3-methyl-2-furanyl)-1H-pyrazol-4-ylmethyl]dimethylamine] | 8.19 | 6.44
2 | Fc1ccc(-c2ccc(-n3ncc(CN4CCN(CCN5CCCC5)CC4)c3-c3ccco3)cc2)cc1 [Example 633, 1-[1-(4′-Fluorobiphenyl-4-yl)-5-furan-2-yl-1H-pyrazol-4-ylmethyl]-4-(2-pyrrolidin-1-ylethyl)piperazine] | 7.39 | 6.00
3 | OC1CCN(Cc2cnn(-c3ccc(-c4ccc(F)cc4)cc3)c2-c2cccc(Cl)c2)C1 (stereo not drawn) [Example 618, 1-[5-(3-Chlorophenyl)-1-(4′-fluorobiphenyl-4-yl)-1H-pyrazol-4-ylmethyl]pyrrolidin-3-ol] | 7.48 | 6.00
4 | CC(C)(C)OC(=O)N1CCN(Cc2cnn(-c3ccc(-c4ccc5c(c4)OCO5)cc3)c2-c2ccco2)CC1 [Example 547, tert-Butyl 4-[1-(4-benzo-1,3-dioxol-5-ylphenyl)-5-furan-2-yl-1H-pyrazol-4-ylmethyl]piperazine-1-carboxylate] | 8.32 | 6.00
5 | COc1ccc(-c2ccc(-n3ncc(CN(C)C)c3-c3ccco3)cc2)cc1 [Example 542, [5-Furan-2-yl-1-(4′-methoxybiphenyl-4-yl)-1H-pyrazol-4-ylmethyl]dimethylamine] | 8.42 | 6.54
6 | CCN1CCN(Cc2cnn(-c3ccc(-c4ccc5c(c4)OCCO5)cc3)c2-c2ccco2)CC1 [Example 557, 1-{1-[4-(2,3-Dihydrobenzo-1,4-dioxin-6-yl)phenyl]-5-furan-2-yl-1H-pyrazol-4-ylmethyl}-4-ethylpiperazine] | 8.10 | 6.46
7 | CCN1CCN(Cc2cnn(-c3ccc(-c4ccc(F)cc4)cc3)c2-c2occc2C)CC1 [Example 536, 1-Ethyl-4-[1-(4′-fluorobiphenyl-4-yl)-5-(3-methyl-2-furanyl)-1H-pyrazol-4-ytmethyl]piperazine] | 8.52 | 6.00
8 | CCN1CCN(Cc2cnn(-c3ccc(-c4ccc(F)cc4)cc3)c2-c2ccco2)CC1 [Example 539, 1-Ethyl-4-[1-(4′-fluorobiphenyl-4-yl)-5-furan-2-yl-1H-pyrazol-4-ylmethyl]piperazine] | 8.44 | 6.51
9 | CCN1CCN(Cc2cnn(-c3ccc(-c4ccc5c(c4)OCO5)cc3)c2-c2ccco2)CC1 [Example 533, 1-[1-(4-Benzo-1,3-dioxol-5-ylphenyl)-5-furan-2-yl-1H-pyrazol-4-ylmethyl]-4-ethylpiperazine] | 8.80 | 6.65
